Patent US11014953B2, “Trigger-activatable metabolic sugar precursors for cancer-selective labeling and targeting” (priority 2015, dated 2021)

Legend:
[1] = in vivo
Procedure: Liver, heart, kidneys, spleen, brain, sternum and spinal cord (cervical thoracic and lumbar) were fixed in formalin, paraffin-embedded, sectioned with a thickness of 4 μm, and stained with H&E. Tissues were analyzed by a board-certified pathologist to investigate treatment-mediated toxicity. These analyses were performed by a board certified pathologist.

[2] = test system: LS174T colon cancer cells; experiment: Metabolic labeling of LS174T cells with azido-sugars, azides detected by DBCO-Cy5 (confocal imaging, flow cytometry); assay type: cell-based; conditions: LS174T cells
Procedure: General procedures for confocal imaging of azido-sugar labeled cells. Cells were seeded onto coverslips in a 6-well plate at a cell density of 40 k/well. Ac4ManAz or Ac3ManAz derivatives were added with a final concentration of 50 μM and the cells were incubated at 37° C. for 72 h. The medium was removed and washed with PBS for three times. DBCO-Cy5 (50 μM) in Opti-MEM was then added and the cells were incubated for another 1 h. Then the medium was removed and the cells were washed with PBS for three times. 4% paraformaldehyde (PFA) solution was added to fix the cells for 10 min, followed by staining of cell nucleus with DAPI (2 μg/mL) for 10 min. The coverslips were mounted on microscope slides with the addition of ProLong Gold antifade reagent, and the prepared sample was stored in dark for imaging.
General procedures for flow cytometry analysis of azido-sugar labeled cells. Cells were seeded onto coverslips in a 6-well plate at a cell density of 40 k/well. Ac4ManAz or Ac3ManAz derivatives were added and incubated with cells for 72 h. After removal of medium and multiple washing steps, DBCO-Cy5 in opti-MEM was added and incubated with cells at 37° C. for 1 h. The opti-MEM was then removed and cells were washed with PBS for three times. Cells were lifted by incubating with trypsin solution (1 mL) at 37° C. for 3 min and transferred to test tubes with addition of 4% PFA solution (0.5 mL). Twenty thousand cells per sample were analyzed by flow cytometry and data analysis was performed on the FCS Express software.
Ac3ManAzNB mediated controlled cell labeling. LS174T cells were seeded onto coverslips in a 6-well plate at a cell density of 40 k/well. Ac3ManAzNB with a final concentration of 50 μM was added. […] Cells without UV irradiation were continuously incubated for 72 h. Cell samples for confocal imaging and flow cytometry were then prepared following the above-mentioned procedures.
Ac3ManAzHQ mediated controlled cell labeling. LS174T colon cancer cells or Caco-2 colon cancer cells or human fibroblast IMR90 cells were seeded onto coverslips in a 6-well plate at a cell density of 40 k/well and allowed to attach for overnight. Ac3ManAzHQ with a final concentration of 50 μM was added, followed by the addition of curcumin with a final concentration of 50 μM. Cells treated with PBS or Ac3ManAzHQ only were used as control. After 72-h incubation, cell samples for confocal imaging and flow cytometry were prepared following the above-mentioned procedures.
E-S mediated controlled cell labeling in vitro. LS174T colon cancer cells or human fibroblast IMR90 cells were seeded onto coverslips in a 6-well plate at a cell density of 40 k/well. E-S with a final concentration of 50 μM was added, followed by the addition of either TSA (1 μM) or Z-FY-CHO (50 μM). Cells treated with PBS or E-S only were used as the control. After 72-h incubation, the medium was removed and cell samples for confocal imaging and GE-Analyzer measurements were prepared similarly to above-mentioned procedures.

LS174T cells = experiment: Western blot analysis of LS174T cells treated with azido-sugars; assay type: cell-based; conditions: 72 h
Procedure: Western blot analysis of cells treated with azido-sugars. LS174T cells were seeded onto cell culture flasks (25 cm^2 growth area) at a density of 1×10^6 cells per plate in 5 mL of media. Different azido-sugars were added and incubated with cells for 72 h. The cells were washed with PBS twice and harvested from the flasks using a cell scraper. Cells were pelleted by centrifugation at 1000 rpm for 5 min and re-suspended in 200 μL of lysis buffer (1% SDS, 100 mM Tris.HCl, pH 7.4) containing 1 tablet protease inhibitor (EDTA-free). The lysate was incubated at 4° C. for 30 min, followed by centrifugation at 3000 rcf for 10 min to remove insoluble debris. The total concentration of soluble protein in each sample was determined by bicinchoninic acid (BCA) assay and adjusted to the same concentration. Then 20 μL of the lysate was taken out and incubated with phosphine-PEG3-biotin (2 μL, 5 mM in PBS) at 37° C. for 6 h. Loading buffer was added to each sample and samples were loaded onto 10% SDS-PAGE gel after heating at 95° C. After running the gel for 100 min, proteins were transferred to Hybond P membrane, followed by blocking of the membrane with 5% bovine serum albumin (BSA) in TBST (50 mM Tris.HCl, 150 mM NaCl, 0.1% Tween 20, pH 7.4) for 2 h. The membrane was then incubated with streptavidin-HRP (diluted 1:2000 in TBST) overnight at 4° C., rinsed with TBST for three times and developed by ECL Western Blotting Substrate. For fluorescent visualization of protein bands, 20 μL of cell lysate was directly incubated with DBCO-Cy3 solution for 3 h. After the gel running and membrane transfer, protein bands were visualized using an Image Quant LAS 4010 system with a Cy3/Cy3 (excitation/emission) channel.

[3] = test system: subcutaneous LS174T tumors; experiment: In vivo tumor labeling after intratumoral injection of azido-sugars, DBCO-Cy5 i.v.; parameters: species or system athymic nude mice
Procedure: In vivo tumor labeling of Ac4ManAz, Ac3ManAzEt, and Ac3ManAzNB. LS174T tumor models were established on 6 week-old athymic nude mice by subcutaneous injection of LS174T colon cancer cells (1.5 million) in HBSS/matrigel (1/1, v/v) to both flanks. When the tumors grew to 5-6 mm, Ac4ManAz or Ac3ManAzEt or Ac3ManAzNB (25 mM, 20 μL) was injected into the left tumors once daily for three days while the same amount of PBS was injected to the right tumors as control (N=3 per group). At 24 h post the last injection, DBCO-Cy5 (5 mg/kg) was i.v. injected and its biodistribution was monitored via in vivo fluorescence imaging. Prior to imaging, nude mice were placed on the sample stage equipped with anesthesia input and output ports, and imaged by the Maestro In-Vivo Fluorescence Imaging System. The excitation filter of 575-605 nm was used. The tunable emission filter was automatically stepped in 10-nm increments from 630 to 850 nm with an exposure time of 50 ms for images taken at each wavelength. Collected images were analyzed by the Maestro software, which uses spectral unmixing algorithms to subtract autofluorescence from Cy5 signals. Tumors and major organs were harvested from mice at 24 h post injection of DBCO-Cy5. Ex vivo images were collected similarly using the Maestro system. Fluorescence intensity at selected ROIs was quantified using Maestro imaging software. All values were presented as means±standard deviation (n=3).
Western blot analysis of tissues. Tumors and organs harvested from azido-sugar treated mice were transferred into glass tubes containing 2 mL of lysis buffer (1% SDS, 100 mM Tris HCl, pH 7.4), homogenized, and incubated at 4° C. for 30 min. The lysates were then centrifuged at 3000 rcf for 10 min to remove the insoluble debris. Total soluble protein concentrations were determined by BCA assay and adjusted to 5 mg/mL for each group. The rest of procedures were the same as the above-mentioned western blot analysis of cells.
Confocal imaging of tumor tissue sections. After ex vivo imaging, tumors were directly frozen in O.C.T. compound and sectioned on a cryostat (Leica CM3050S) with a thickness of 6-8 μm. DAPI in PBS (2 μg/mL) was added onto the tissue-attaching microscope slides to stain cell nucleus. After 10 min, DAPI solution was removed and tissues were washed with PBS for three times. Coverslips were mounted on the microscope slides with the addition of ProLong Gold antifade reagent, and the prepared sample was stored in dark for confocal imaging.

LS174T tumors = experiment: E-S mediated cancer-selective labeling in vivo, western blot analysis of tissues; parameters: species or system athymic nude mice; conditions: i.v. once daily three days, 24 h p.i.; liver, spleen, heart, lung, kidney
Procedure: (1) Western blot analysis of tissues. LS174T tumor models were established in 6 week-old athymic nude mice by subcutaneous injection of LS174T colon cancer cells (1.5 million) in HBSS/matrigel (1/1, v/v). When the tumors grew to 5-6 mm, E-S (60 mg/kg) was i.v. injected once daily for three days. Mice i.v. administered with Ac4ManAz (40 mg/kg, 10% DMSO in PBS) or PBS were used as control. At 24 h post the last injection, tumors and major organs were harvested, transferred into lysis buffer (2 mL), and homogenized. The lysates were incubated at 4° C. for 30 min, and insoluble debris was removed by centrifugation at 3000 rpm for 10 min. Total soluble protein concentrations were determined by BCA assay and adjusted to 5 mg/mL for each group. The rest of procedures were the same as the abovementioned general procedures for western blot analysis. Azido-labeled protein bands in tumor tissues and healthy tissues of all three groups were visualized and compared to understand the cancer-selective labeling capability of E-S in vivo.

SMILES | Toxicity in mouse tissues (bone marrow, spleen) [1] | Cy5 fluorescence on the cell surface (CLSM) ([2]; 50 μM azido-sugar three days (72 h), then DBCO-Cy5 1 h) | Cy5 fluorescence by flow cytometry ([2]; compared with cells treated with Ac3ManAzEt or PBS) | Western blot of azido-glycoproteins (biotinylated with phosphine-PEG3-biotin) (LS174T cells) | In vivo Cy5 fluorescence intensity of pretreated left tumors vs control right tumors ([3]; 24 h p.i. of i.v. DBCO-Cy5) | Ex vivo increase in Cy5 FI compared to the control tumors ([3]; ex vivo imaging of tumors) | Western blot of tumors (azido-modified glycoproteins) ([3]; intratumoral once daily for three days, tumors harvested 24 h p.i.) | Cy5 fluorescence of tumor sections (confocal imaging) ([3]; tumor sections after ex vivo imaging) | Azido-modified proteins in normal tissues (western blot) (LS174T tumors)
COc1cccc2c1C(=O)c1c(O)c3c(c(O)c1C2=O)C[C@@](O)(C(=O)CO)C[C@@H]3O[C@H]1C[C@H](N)[C@H](O)[C@H](C)O1 [Doxo, doxorubicin] | much greater toxicity |  |  |  |  |  |  |  | 
CC(=O)OC[C@H]1OC(OC(C)=O)[C@@H](NC(=O)CN=[N+]=[N-])[C@@H](OC(C)=O)[C@@H]1OC(C)=O (stereo partly drawn) [Ac4ManAz, tetraacetyl N-azidoacetylmannosamine] |  | strong Cy5 fluorescence on the cell surface | significantly enhanced Cy5 fluorescence | a series of protein bands | much stronger Cy5 fluorescence intensity | over 4 fold | a series of azido-modified glycoproteins | strong Cy5 fluorescence | non-specific labeling in normal tissues
